The values that follow come from US20250197368A1 (priority 2020, published 2025).

Experiment [1] concerns the target human α2β3γ2 GABAARs (benzodiazepine site) (Homo sapiens (Human), UniProt P18507+P47869). Put plainly: In vitro radioligand binding assay ([3H]Ro15-1788 displacement), α2-GABAAR Ki. An outline of the steps: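 Ki derived via Cheng-Prusoff from IC50 for displacement of 4 nM [3H]Ro15-1788 (Kd from saturation binding), with 1-3 μM TP003 defining nonspecific binding. Incubation lasted 1 h at 4° C on membranes of induced L(tk−) cells stably transfected with the human subunits; detection by filtration and scintillation counting.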

In another experiment the test system is human α3β3γ2 GABAARs. Put plainly: In vitro electrophysiological recording assay (automated patch-clamp), α3-GABAAR relative efficacy. It is filed as cell-based. To be noted: % efficacy normalised to diazepam; GABA EC10-20; concentration generally >= 100 times Ki. The protocol: The efficacy of modulators was evaluated using the automated patch-clamp platforms QPatch16 (Sophion, Copenhagen, Denmark) or SyncroPatch 384PE (Nanion, Germany).
For QPatch electrophysiology testing L(tk^−) cells stably expressing human α1β3γ2, α2β3γ2, α3β3γ2, α5β3γ2 GABAARs were used. HEK293 cells stably expressing human α1β3γ2L, α2β3γ2L, α3β3γ2L and α5β3γ2L GABAARs were used for the SyncroPatch 384PE experiments.
All experiments were carried out at room temperature (20-22° C.) using a standard whole cell procedure and physiological solutions. Gigaseals were formed upon execution of a combined suction/voltage protocol with subsequent increased suction leading to the whole-cell configuration.
The currents recorded were acquired at either 1 KHz or 2 KHz and filtered using a Bessel filter. Whole-cell currents were measured at a holding potential of-65 mV (QPatch) or −80 mV (SyncroPatch).
For QPatch experiments, the extracellular solution contained of: 145 mM NaCl, 4 mM KCl, 1 mM MgCl2, 2 mM CaCl2), 10 mM HEPES, 10 mM D-glucose (pH 7.4), and the intracellular solution consisted of: 96 mM KCl, 28 mM CsCl, 25 mM KOH, 4.3 mM CaCl2), 1.4 mM MgCl2, 10 mM EGTA, 10 mM HEPES, 3 mM MgATP (pH 7.2). The osmolarities of the extracellular and intracellular solutions were 305 and 295 mOsm respectively.
For SyncroPatch experiments, the extracellular recording solution contained: 140 mM NaCl, 4 mM KCl, 2 mM CaCl2), 1 mM MgCl2, 10 mM HEPES, 5 mM glucose (pH 7.4 with NaOH and osmolarity of c. 300-310 mOsm). The intracellular recording solution consisted of: 90 mM KCl, 50 mM KF, 1.5 mM MgCl2, 11.1 mM EGTA and 10 mM HEPES (pH 7.2 with KOH and osmolarity of c. 300 mOsm). 2 mM of NaATP was added to the intracellular solution on the day of testing.
The effects of modulators were evaluated in the presence of a submaximal GABA concentration, giving typically less than 30% activation of the response elicited by a saturating GABA concentration. To check and ensure baseline current stability before compound addition, two to five consecutive applications of GABA EC10-20 separated by wash steps were performed before compound addition. The test compound was applied 1 min at least prior to co-application with GABA EC10-20. Following a further wash step, a saturating concentration of GABA was applied at the end of each recording, allowing the accurate evaluation for each cell of the percentage baseline activation elicited by the submaximal GABA applied.
The compounds were first dissolved in DMSO as a 10 mM stock and then further diluted to the testing concentrations so that the final DMSO concentration in the extracellular recording solution was 0.1% (QPatch) or 0.2% (SyncroPatch).
The % efficacy of modulators was determined from the GABA elicited currents recorded in the presence and absence of the test compound, using the formula:
[((compound peak current−leak)−(GABA peak current-leak))/(GABA peak current−leak)]*100,
where ‘leak’ is the leak baseline current at the holding potential, ‘compound peak current’ is the current elicited by co-application of compound and GABA, and ‘GABA peak current’ is the current elicited by GABA alone at the last GABA application before compound addition. The results were presented as ‘relative efficacy’ for each compound generally at a concentration equal or higher than 100 times their determined Ki. The relative efficacy of a compound was calculated by normalising its % efficacy to the corresponding % efficacy of diazepam that was separately determined.
A general note: Patch clamp records ionic current or voltage across a cell membrane.

Another experiment deals with human α2β3γ2 GABAARs. Put plainly: In vitro electrophysiological recording assay (automated patch-clamp), α2-GABAAR relative efficacy. It is filed as cell-based. To be noted: % efficacy normalised to diazepam; GABA EC10-20; concentration generally >= 100 times Ki. The gist of the method:
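Relative efficacy is % enhancement of the leak-subtracted GABA EC10-20 peak current, divided by the separately measured diazepam value; compound generally tested at ≥100× Ki after ≥1 min pre-application. Recordings at room temperature, human receptors stably expressed in L(tk^−) (QPatch, −65 mV) or HEK293 (SyncroPatch, −80 mV) cells.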

Experiment [2] has as its target human α3β3γ2 GABAARs (benzodiazepine site) (Homo sapiens (Human), UniProt P18507+P34903). Put plainly: In vitro radioligand binding assay ([3H]Ro15-1788 displacement), α3-GABAAR Ki. To be noted: L(tk-) cell membranes, 4 nM [3H]Ro15-1788. Here is the method: The affinity (Ki) of compounds for the benzodiazepine site of human recombinant GABAARs was measured by their ability to inhibit the binding of the selective benzodiazepine antagonist [^3H]Ro15-1788 ([^3H] flumazenil).
Mouse L(tk^−) cells stably expressing human α1β3γ2, α2β3γ2, α3β3γ2, α5β3γ2 GABAARs were generated by transfection of the individual subunits in the dexamethasone-inducible expression vector pMSGneo in mouse L(tk^−) cells (Hadingham et al., 1993, Mol. Pharmacol. 43:970-975 and 1993, Mol. Pharmacol. 44:1211-1218).
L(tk^−) cells stably expressing human α1β3γ2, α2β3γ2, α3β3γ2, α5β3γ2 GABAARs were maintained in DMEM F12 medium supplemented with 10% Foetal Bovine Serum, 1% Penicillin/Streptomycin and 1 mg/mL Geneticin G418 in an incubator at 37° C. with a humidified atmosphere with 5% CO2. Dexamethasone was added to the culture medium to induce GABAAR expression.
L(tk−) cells were harvested and membranes were prepared for each receptor combination in either TE buffer (10 mM Tris·CI/0.1 mM EDTA, pH 7.5) or phosphate buffer (K2PO4 10 mM, pH 7.0) (Hadingham et al. (1992) Proc. Natl. Acad. Sci. USA; 89 (14): 6378-82). Protein concentration, receptor expression and the Kd of [^3H]Ro15-1788 were determined before Ki value of the compounds were evaluated. For Kd evaluation, saturation binding curves were obtained by incubating membrane with various concentrations of [^3H]Ro15-1788 (82.5 Ci/mM), with nonspecific binding measured in the presence of 1-3 μM TP003.
For Ki evaluation, cell membranes were incubated with 4 nM [^3H]Ro15-1788 along with a range of concentrations of test compound. Nonspecific binding was determined using 1-3 μM TP003. All incubations were performed for 1 hour at 4° C. in assay buffer. The total assay volume was 0.5 mL, containing 40 μg/well α1β3γ2, 30 μg/well α2β3γ2, 40 μg/well α3β3γ2 and 30 μg/well for α5β3γ2 of membrane protein. Incubations were terminated by filtration and washing with ice cold Tris-HCl buffer (50 mM, pH=7.4) over Whatman GF/B filters and the radioactivity of the filters was measured using liquid scintillation counting.
The % inhibition of [^3H]Ro15-1788 binding was plotted as a function of compound concentration and the IC50 calculated. From the IC50, the affinity (Ki) was calculated using the method of Cheng and Prusoff using the Kd values obtained for [^3H]Ro15-1788.

Chain of human α2β3γ2 GABAARs (benzodiazepine site) (P47869 29-451): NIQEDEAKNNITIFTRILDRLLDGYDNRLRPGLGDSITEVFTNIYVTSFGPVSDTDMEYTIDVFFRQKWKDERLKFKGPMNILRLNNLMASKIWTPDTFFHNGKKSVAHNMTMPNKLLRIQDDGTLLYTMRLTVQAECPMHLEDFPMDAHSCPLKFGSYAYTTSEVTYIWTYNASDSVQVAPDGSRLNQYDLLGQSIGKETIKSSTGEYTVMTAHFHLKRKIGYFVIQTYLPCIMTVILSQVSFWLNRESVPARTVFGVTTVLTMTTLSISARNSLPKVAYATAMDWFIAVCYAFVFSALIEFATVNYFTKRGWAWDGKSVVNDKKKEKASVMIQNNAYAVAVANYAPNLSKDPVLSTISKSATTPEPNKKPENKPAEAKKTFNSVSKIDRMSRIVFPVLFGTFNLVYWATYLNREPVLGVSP
Chain of human α2β3γ2 GABAARs (benzodiazepine site) (P28472 26-473 partner): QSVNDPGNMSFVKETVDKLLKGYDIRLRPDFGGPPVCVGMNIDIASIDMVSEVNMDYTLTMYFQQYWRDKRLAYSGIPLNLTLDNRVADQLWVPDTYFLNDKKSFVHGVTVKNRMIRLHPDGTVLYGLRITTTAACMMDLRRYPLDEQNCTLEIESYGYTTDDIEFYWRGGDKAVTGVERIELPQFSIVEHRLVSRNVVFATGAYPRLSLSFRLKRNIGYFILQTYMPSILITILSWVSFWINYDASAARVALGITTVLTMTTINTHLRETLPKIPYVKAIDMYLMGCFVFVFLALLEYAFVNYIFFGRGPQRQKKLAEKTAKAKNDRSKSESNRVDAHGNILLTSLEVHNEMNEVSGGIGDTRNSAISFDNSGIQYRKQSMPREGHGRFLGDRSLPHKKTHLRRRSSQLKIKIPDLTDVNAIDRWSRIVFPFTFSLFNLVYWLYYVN
Chain of human α2β3γ2 GABAARs (benzodiazepine site) (P18507 40-475): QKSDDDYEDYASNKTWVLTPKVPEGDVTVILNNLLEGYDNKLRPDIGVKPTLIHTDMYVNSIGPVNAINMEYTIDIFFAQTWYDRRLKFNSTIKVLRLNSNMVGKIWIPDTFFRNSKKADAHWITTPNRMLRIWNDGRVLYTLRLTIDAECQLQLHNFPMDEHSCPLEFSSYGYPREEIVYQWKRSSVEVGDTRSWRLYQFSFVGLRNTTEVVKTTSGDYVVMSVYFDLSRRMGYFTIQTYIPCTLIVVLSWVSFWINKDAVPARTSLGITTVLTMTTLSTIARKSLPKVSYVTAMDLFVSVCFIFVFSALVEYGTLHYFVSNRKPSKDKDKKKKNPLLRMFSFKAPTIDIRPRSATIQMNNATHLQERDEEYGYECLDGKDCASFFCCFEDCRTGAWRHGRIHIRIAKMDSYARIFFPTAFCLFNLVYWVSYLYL

Regarding `CCCNC(=O)c1c(N)c2cccc(-c3cc(OCc4ccc(C)nc4)ccc3F)c2[nH]c1=O` [Example 110, 4-Amino-8-[2-fluoro-5-[(6-methyl-3-pyridyl)methoxy]phenyl]-2-oxo-N-propyl-1H-quinoline-3-carboxamide], the inhibitory constant (Ki) (usually the dissociation constant of the complex between target and ligand, obtained from inhibition or displacement) came out at 0.59 nM in experiment [1] and 0.97 nM in experiment [2]. For the same compound, the “α3-GABAAR Relative Efficacy (vs. Diazepam)” value (“α3-GABAAR Relative Efficacy” below) in the experiment with human α3β3γ2 GABAARs amounted to 0.30. Besides, in the experiment on human α2β3γ2 GABAARs, the “α2-GABAAR Relative Efficacy (vs. Diazepam)” value (“α2-GABAAR Relative Efficacy” for short) came out at 0.25.

Regarding `CCCNC(=O)c1c(N)c2cccc(-c3cccc(OCc4cccnc4)n3)c2[nH]c1=O` [Example 111, 4-Amino-2-oxo-N-propyl-8-(6-(pyridin-3-ylmethoxy)pyridin-2-yl)-1,2-dihydroquinoline-3-carboxamide], the results for the Ki in experiment [1] and in experiment [2] were 0.23 nM and 0.41 nM, respectively. The “α3-GABAAR Relative Efficacy” value in the experiment with human α3β3γ2 GABAARs stood at 0.47. Besides, the “α2-GABAAR Relative Efficacy” value with human α2β3γ2 GABAARs was determined as 0.27.

On to `CCCNC(=O)c1c(N)c2cccc(-c3cc(OCc4c[nH]cn4)ccc3F)c2[nH]c1=O` [Example 124, 8-(5-((1H-Imidazol-4-yl)methoxy)-2-fluorophenyl)-4-amino-2-oxo-N-propyl-1,2-dihydroquinoline-3-carboxamide], for which the Ki was 0.98 nM in experiment [1] and 1.55 nM in experiment [2]. Moreover, the “α3-GABAAR Relative Efficacy” value in the experiment on human α3β3γ2 GABAARs turned out to be 0.34. The “α2-GABAAR Relative Efficacy” value in the experiment with human α2β3γ2 GABAARs is given as 0.28.

Regarding `CCCNC(=O)c1c(N)c2cccc(-c3cc(CN4CCN(C)CC4)ccc3F)c2[nH]c1=O` [Example 137, 4-Amino-8-[2-fluoro-5-[(4-methylpiperazin-1-yl)methyl]phenyl]-2-oxo-N-propyl-1H-quinoline-3-carboxamide], the Ki in experiment [1] came to 3 nM; in experiment [2], 8.07 nM. In addition, the “α3-GABAAR Relative Efficacy” value with human α3β3γ2 GABAARs was 0.53. Also, in the experiment with human α2β3γ2 GABAARs, the “α2-GABAAR Relative Efficacy” value is given as 0.42.

Consider `CCCNC(=O)c1c(N)c2cccc(-c3nc(CN4CCN(C)CC4)ccc3F)c2[nH]c1=O` [Example 138, 4-Amino-8-(3-fluoro-6-((4-methylpiperazin-1-yl)methyl)pyridin-2-yl)-2-oxo-N-propyl-1,2-dihydroquinoline-3-carboxamide], for which the results for the Ki in experiment [1] and in experiment [2] were 1.87 nM and 4.99 nM, respectively. Further, the “α3-GABAAR Relative Efficacy” value in the experiment on human α3β3γ2 GABAARs is 0.42. Also, the “α2-GABAAR Relative Efficacy” value in the experiment with human α2β3γ2 GABAARs turned out to be 0.17.

For `CCCNC(=O)c1c(N)c2cccc(-c3cc(CN4CCC5(CCN(C)C5)C4)ccc3F)c2[nH]c1=O` (stereo not shown) [Example 142, 4-Amino-8-(2-fluoro-5-((7-methyl-2,7-diazaspiro[4.4]nonan-2-yl)methyl)phenyl)-2-oxo-N-propyl-1,2-dihydroquinoline-3-carboxamide], the Ki in experiment [1] is 3.6 nM; in experiment [2], 6.35 nM. For the same compound, the “α3-GABAAR Relative Efficacy” value in the experiment on human α3β3γ2 GABAARs is recorded as 0.27. Moreover, in the experiment on human α2β3γ2 GABAARs, the “α2-GABAAR Relative Efficacy” value is given as 0.24.

Regarding `CCCNC(=O)c1c(N)c2cccc(-c3cc(CN4CCC5(CCN(C)CC5)C4)ccc3F)c2[nH]c1=O` [Example 143, 4-Amino-8-(2-fluoro-5-((8-methyl-2,8-diazaspiro[4.5]decan-2-yl)methyl)phenyl)-2-oxo-N-propyl-1,2-dihydroquinoline-3-carboxamide], the results for the inhibition constant (Ki) in experiment [1] and in experiment [2] were 1.8 nM and 10.1 nM, respectively. For the same compound, the “α3-GABAAR Relative Efficacy” value in the experiment on human α3β3γ2 GABAARs was 0.11. Moreover, the “α2-GABAAR Relative Efficacy” value in the experiment on human α2β3γ2 GABAARs was determined as 0.32.
